# Experimental data from patent US11000033B2, “Ketone or oxime compound, and herbicide” (NISSAN CHEMICAL CORPORATION, priority 2014, dated 2021).
# How the values were obtained:
# Type in all cases: in vivo
# corn [1] = assay: Test Example 5: effect on crop by foliage application, plastic box (symbol c); conditions: 320 g/ha, 3 weeks after application
# How it was run: (§1)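 Greenhouse culture at 25° C. to 30° C. followed spot-like sowing into sterilized diluvial soil, with seed covered by roughly 1.5 cm of soil.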
# wheat = assay: Test Example 4: effect on crop by soil treatment (symbol e); conditions: application herbicide amount 320 g/ha
# How it was run: (§2)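 Soil-treatment setup: crop and weed seeds were spot-sown into sterilized diluvial soil, then buried beneath approximately 1.5 cm of it, and the boxes were housed in a 25–30° C. greenhouse.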
# beet = assay: Test Example 5: effect on crop by foliage application, plastic box (symbol f); conditions: 320 g/ha, 3 weeks after application
# How it was run: as §1
# Scirpus juncoides = assay: Test Example 2: herbicidal activity, application during weed generation in submerged conditions (symbol B); conditions: Table 23; application herbicide amount 320 g/ha; grade 0-5 by criteria of Test Example 1
# How it was run: (§3)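 Read-out: herbicidal effect on each species rated on a visual scale 3 weeks after treatment. Plants were raised together from seed in flooded alluvial soil (4 cm water) at 25° C. to 30° C. and treated at one to two leaves by water-surface application of diluted emulsion.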
# Cyperus difformis = assay: Test Example 3: herbicidal effect by foliage application, Wagner pot (symbol E); conditions: application herbicide amount 320 g/ha
# How it was run: (§4)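 Scoring took place 3 weeks after application, using fixed criteria. Plants had been raised from seed for 14 days at 25 to 30 °C in submerged alluvial soil before a diluted emulsion of the test compound was sprayed uniformly on the leaves.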
# corn [2] = assay: Test Example 4: effect on crop by soil treatment (symbol c); conditions: application herbicide amount 320 g/ha
# How it was run: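 Diluvial soil (sterilized) in boxes; seeds placed spot-wise alongside weed species; ~1.5 cm covering soil. Greenhouse, 25–30° C.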
# transplanted rice plant = assay: Test Example 1: effect on crop, application before weed generation in submerged conditions (symbol a); conditions: application herbicide amount 320 g/ha
# How it was run: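 Rice at 2.5 leaf stage transplanted into submerged soil (4 cm depth) sown with three weed species; herbicide applied before weed emergence.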
# Monochoria vaginalis = assay: Test Example 1: herbicidal activity, application before weed generation in submerged conditions (symbol C); conditions: application herbicide amount 320 g/ha
# How it was run: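 Application before weed emergence: an aqueous dilution of the emulsion formulation was poured onto the surface of 4 cm-deep floodwater on the day of sowing. Effect was judged after 3 weeks (greenhouse, 25–30 °C).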
# soybean [3] = assay: Test Example 5: effect on crop by foliage application, plastic box (symbol d); conditions: 320 g/ha, 3 weeks after application
# How it was run: as §1
# Stellaria media = assay: Test Example 4: herbicidal effect by soil treatment (symbol P); conditions: application herbicide amount 320 g/ha
# How it was run: (§5)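 Seeds were sown in sterilized diluvial soil, covered with about 1.5 cm of soil, and the soil surface was sprayed with a water-diluted emulsion of the compound at a predetermined rate. Plants grew in a greenhouse at 25° C. to 30° C.; effects were scored visually 3 weeks after application.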
# [4] = tested on: Echinochloa oryzacola Vasing.; assay: Test Example 2: herbicidal activity, application during weed generation in submerged conditions (symbol A); conditions: Table 23; application herbicide amount 320 g/ha; grade 0-5 by criteria of Test Example 1
# How it was run: as §3
# Leptochloa chinensis = assay: Test Example 3: herbicidal effect by foliage application, Wagner pot (symbol D); conditions: application herbicide amount 320 g/ha
# How it was run: as §4
# soybean [5] = assay: Test Example 4: effect on crop by soil treatment (symbol d); conditions: application herbicide amount 320 g/ha
# How it was run: as §2
# rice plant = assay: Test Example 5: effect on crop by foliage application, plastic box (symbol b); conditions: 320 g/ha, 3 weeks after application
# How it was run: as §1
# [6] = tested on: Echinochloa crus-galli var. crus-galli; assay: Test Example 3: herbicidal effect by foliage application, Wagner pot (symbol H); conditions: application herbicide amount 320 g/ha
# How it was run: as §4
# Abutilon theophrasti = assay: Test Example 4: herbicidal effect by soil treatment (symbol M); conditions: application herbicide amount 320 g/ha
# How it was run: as §5
Structure (SMILES),"c: corn, effect on crop (criteria of Test Example 1) (corn [1])","e: wheat, effect on crop grade (wheat)","f: beet, effect on crop (criteria of Test Example 1) (beet)","Herbicidal effect grade, B: Scirpus juncoides (Scirpus juncoides)","herbicidal effect on E, grade 0-5 (Cyperus difformis)","c: corn, effect on crop grade (corn [2])","Effect grade on crop, a: transplanted rice plant (transplanted rice plant)","Herbicidal effect grade, C: Monochoria vaginalis (Monochoria vaginalis)","d: soybean, effect on crop (criteria of Test Example 1) (soybean [3])","P: Stellaria media, herbicidal effect grade (Stellaria media)","Herbicidal effect grade, A: Echinochloa oryzacola Vasing. [4]","herbicidal effect on D (Leptochloa chinensis), grade 0-5 (Leptochloa chinensis)","d: soybean, effect on crop grade (soybean [5])","b: directly sowed rice plant, effect on crop (criteria of Test Example 1) (rice plant)","herbicidal effect on H (Echinochloa crus-galli var. crus-galli), grade 0-5 [6]","M: Abutilon theophrasti, herbicidal effect grade (Abutilon theophrasti)"
CCc1cc(-c2ccc(Cl)cc2)cc(C)c1C1=C(O)CC(CC(C)=NOC)C1=O (centres unmarked) [6-066],5 (Herbicidal ratio of 90% or more (almost completely withered)),4 (Herbicidal ratio of 70% or higher and lower than 90%),0 (Herbicidal ratio of 5% or lower (almost no effect)),0 (Herbicidal ratio of 5% or lower (almost no effect)),5 (Herbicidal ratio of 90% or more (almost completely withered)),4 (Herbicidal ratio of 70% or higher and lower than 90%),3 (Herbicidal ratio of 40% or higher and lower than 70%),2 (Herbicidal ratio of 20% or higher and lower than 40%),3 (Herbicidal ratio of 40% or higher and lower than 70%),0 (Herbicidal ratio of 5% or lower (almost no effect)),5 (Herbicidal ratio of 90% or more (almost completely withered)),5 (Herbicidal ratio of 90% or more (almost completely withered)),0 (Herbicidal ratio of 5% or lower (almost no effect)),5 (Herbicidal ratio of 90% or more (almost completely withered)),5 (Herbicidal ratio of 90% or more (almost completely withered)),0 (Herbicidal ratio of 5% or lower (almost no effect))
CCc1cc(-c2ccc(Cl)cc2)cc(C)c1C1=C(OC(=O)N2CCOCC2)CC(CC(C)=NOC)C1=O (mixture of isomers) [6-064],5 (Herbicidal ratio of 90% or more (almost completely withered)),0 (Herbicidal ratio of 5% or lower (almost no effect)),0 (Herbicidal ratio of 5% or lower (almost no effect)),0 (Herbicidal ratio of 5% or lower (almost no effect)),0 (Herbicidal ratio of 5% or lower (almost no effect)),0 (Herbicidal ratio of 5% or lower (almost no effect)),5 (Herbicidal ratio of 90% or more (almost completely withered)),0 (Herbicidal ratio of 5% or lower (almost no effect)),0 (Herbicidal ratio of 5% or lower (almost no effect)),0 (Herbicidal ratio of 5% or lower (almost no effect)),4 (Herbicidal ratio of 70% or higher and lower than 90%),5 (Herbicidal ratio of 90% or more (almost completely withered)),0 (Herbicidal ratio of 5% or lower (almost no effect)),5 (Herbicidal ratio of 90% or more (almost completely withered)),5 (Herbicidal ratio of 90% or more (almost completely withered)),0 (Herbicidal ratio of 5% or lower (almost no effect))
